Assay [1] concerns BT474 (human breast carcinoma). The assay is described as follows: In vitro tumor cell proliferation assay (Cell Titer-Glo luminescent cell viability), BT474. The class given is cell-based. The conditions noted are these: BT-474, 72 h, BT474 cells, 72 hours of drug exposure, ATP luminescence readout, read-out: IC50, anti-proliferative activity (inhibition of cell proliferation). In outline:
(§1)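 CellTiter-Glo luminescence (ATP content of metabolically active cells) after 72 h compound exposure at 37° C gave IC50s.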
For orientation: Cellular ATP, detected with luciferase, serves as a proxy for viable cell number.

Assay [2] deals with A431 cells (human epidermoid carcinoma). The assay is described as follows: In vitro tumor cell proliferation assay (Cell Titer-Glo luminescent cell viability), A431. The note with it: A-431, 72 h, 72 hours of drug exposure, ATP luminescence readout, read-out: IC50, anti-proliferative activity (inhibition of cell proliferation). The class given is cell-based. Summed up:
as §1

Counter-ions that a name gives are not always drawn.

For `CC(C)(C)OC(=O)N1CCC(Cn2cc3c(n2)CCc2c-3sc3ncnc(Nc4ccc(OCc5cccc(F)c5)c(Cl)c4)c23)CC1` [Example 231, tert-butyl 4-{[6-({3-chloro-4-[(3-fluorobenzyl)oxy]phenyl}amino)-4,5-dihydro-2H-pyrimido[5′,4′:4,5]thieno[2,3-e]indazol-2-yl]methyl}piperidine-1-carboxylate], the values for the IC50 in assay [1] and in assay [2] were at most 5 µM and at most 50 µM, respectively.
For the molecule `Fc1cccc(COc2ccc(Nc3ncnc4sc5c(c34)CCc3nn(CC4CCNCC4)cc3-5)cc2Cl)c1` [Example 232, N-{3-chloro-4-[(3-fluorobenzyl)oxy]phenyl}-2-(piperidin-4-ylmethyl)-4,5-dihydro-2H-pyrimido[5′,4′:4,5]thieno[2,3-e]indazol-6-amine], the IC50 in assay [1] was at most 1 µM; in assay [2] it was at most 5 µM.
On to `CN(C)[C@@H]1CCN(CC(=O)N2CCC(Cn3cc4c(n3)CCc3c-4sc4ncnc(Nc5ccc(OCc6cccc(F)c6)c(Cl)c5)c34)CC2)C1` [Example 234, N-{3-chloro-4-[(3-fluorobenzyl)oxy]phenyl}-2-[(1-{[(3R)-3-(dimethylamino)pyrrolidin-1-yl]acetyl}piperidin-4-yl)methyl]-4,5-dihydro-2H-pyrimido[5′,4′:4,5]thieno[2,3-e]indazol-6-amine trifluoroacetate], for which the IC50 in assay [1] is at most 5 µM; in assay [2], at most 50 µM.
As to `CN(C)[C@H]1CCN(CC(=O)N2CCC(Cn3cc4c(n3)CCc3c-4sc4ncnc(Nc5ccc(OCc6cccc(F)c6)c(Cl)c5)c34)CC2)C1` [Example 235, N-{3-chloro-4-[(3-fluorobenzyl)oxy]phenyl}-2-[(1-{[(3S)-3-(dimethylamino)pyrrolidin-1-yl]acetyl}piperidin-4-yl)methyl]-4,5-dihydro-2H-pyrimido[5′,4′:4,5]thieno[2,3-e]indazol-6-amine], the results for the IC50 in assay [1] and in assay [2] were at most 1 µM and at most 5 µM, respectively.
In the same order, the values of `CN1CCC(Cn2cc3c(n2)CCc2c-3sc3ncnc(Nc4ccc(OCc5cccc(F)c5)c(Cl)c4)c23)CC1` [Example 236, N-{3-chloro-4-[(3-fluorobenzyl)oxy]phenyl}-2-[(1-methylpiperidin-4-yl)methyl]-4,5-dihydro-2H-pyrimido[5′,4′:4,5]thieno-[2,3-e]indazol-6-amine] are at most 1 µM and at most 5 µM.
In the same order, the values of `CN1CCN(CC(=O)N2CCC(Cn3cc4c(n3)CCc3c-4sc4ncnc(Nc5ccc(OCc6cccc(F)c6)c(Cl)c5)c34)CC2)CC1` [Example 237] are at most 1 µM and at most 5 µM.
`O=C(CN1CCOCC1)N1CCC(Cn2cc3c(n2)CCc2c-3sc3ncnc(Nc4ccc(OCc5cccc(F)c5)c(Cl)c4)c23)CC1` [Example 238, N-{3-chloro-4-[(3-fluorobenzyl)oxy]phenyl}-2-{[1-(morpholin-4-ylacetyl)piperidin-4-yl]methyl}-4,5-dihydro-2H-pyrimido[5′,4′:4,5]thieno[2,3-e]indazol-6-amine]: the values for the IC50 in assay [1] and in assay [2] were at most 1 µM and at most 5 µM, respectively.
With `O=C(CN1CCCC1)N1CCC(Cn2cc3c(n2)CCc2c-3sc3ncnc(Nc4ccc(OCc5cccc(F)c5)c(Cl)c4)c23)CC1` [Example 239, N-{3-chloro-4-[(3-fluorobenzyl)oxy]phenyl}-2-{[1-(pyrrolidin-1-ylacetyl)piperidin-4-yl]methyl}-4,5-dihydro-2H-pyrimido[5′,4′:4,5]thieno[2,3-e]indazol-6-amine], the figures for the IC50 in assay [1] and in assay [2] were at most 1 µM and at most 5 µM, respectively.
For `O=C(CN(CCO)CCO)N1CCC(Cn2cc3c(n2)CCc2c-3sc3ncnc(Nc4ccc(OCc5cccc(F)c5)c(Cl)c4)c23)CC1` [Example 240, 2,2′-{[2-(4-{[6-({3-chloro-4-[(3-fluorobenzyl)oxy]phenyl}amino)-4,5-dihydro-2H-pyrimido[5′,4′:4,5]thieno[2,3-e]indazol-2-yl]methyl}piperidin-1-yl)-2-oxoethyl]imino}diethanol] the same measures were at most 1 µM and at most 5 µM.
In the same order, the values of `CN(C)CC(=O)N1CCC(Cn2cc3c(n2)CCc2c-3sc3ncnc(Nc4ccc(OCc5cccc(F)c5)c(Cl)c4)c23)CC1` [Example 241, N-{3-chloro-4-[(3-fluorobenzyl)oxy]phenyl}-2-({1-[(dimethylamino)acetyl]piperidin-4-yl}methyl)-4,5-dihydro-2H-pyrimido[5′,4′:4,5]thieno[2,3-e]indazol-6-amine trifluoroacetate] are at most 1 µM and at most 5 µM.
On to `CCN(CC)CC(=O)N1CCC(Cn2cc3c(n2)CCc2c-3sc3ncnc(Nc4ccc(OCc5cccc(F)c5)c(Cl)c4)c23)CC1` [Example 242, N-{3-chloro-4-[(3-fluorobenzyl)oxy]phenyl}-2-({1-[(diethylamino)acetyl]piperidin-4-yl}methyl)-4,5-dihydro-2H-pyrimido[5′,4′:4,5]thieno[2,3-e]indazol-6-amine trifluoroacetate], for which the results for the IC50 in assay [1] and in assay [2] were at most 1 µM and at most 5 µM, respectively.
In the same order, the values of `CCCN1CCC(Cn2cc3c(n2)CCc2c-3sc3ncnc(Nc4ccc(OCc5cccc(F)c5)c(Cl)c4)c23)CC1` [Example 243, N-{3-chloro-4-[(3-fluorobenzyl)oxy]phenyl}-2-[(1-propylpiperidin-4-yl)methyl]-4,5-dihydro-2H-pyrimido[5′,4′:4,5]thieno[2,3-e]indazol-6-amine] are at most 1 µM and at most 5 µM.
For `CCN1CCC(Cn2cc3c(n2)CCc2c-3sc3ncnc(Nc4ccc(OCc5cccc(F)c5)c(Cl)c4)c23)CC1` [Example 244, N-{3-chloro-4-[(3-fluorobenzyl)oxy]phenyl}-2-[(1-ethylpiperidin-4-yl)methyl]-4,5-dihydro-2H-pyrimido[5′,4′:4,5]thieno[2,3-e]indazol-6-amine], the values for the IC50 in assay [1] and in assay [2] were at most 1 µM and at most 5 µM, respectively.
For `CC(C)N1CCC(Cn2cc3c(n2)CCc2c-3sc3ncnc(Nc4ccc(OCc5cccc(F)c5)c(Cl)c4)c23)CC1` [Example 245, N-{3-chloro-4-[(3-fluorobenzyl)oxy]phenyl}-2-[(1-isopropylpiperidin-4-yl)methyl]-4,5-dihydro-2H-pyrimido[5′,4′:4,5]thieno[2,3-e]indazol-6-amine] the same measures were at most 1 µM and at most 5 µM.
In the same order, the values of `Fc1cccc(COc2ccc(Nc3ncnc4sc5c(c34)CCc3nn(CCC4CCN(Cc6ccco6)CC4)cc3-5)cc2Cl)c1` [Example 248, N-{3-chloro-4-[(3-fluorobenzyl)oxy]phenyl}-2-{2-[1-(2-furylmethyl)piperidin-4-yl]ethyl}-4,5-dihydro-2H-pyrimido[5′,4′:4,5]thieno[2,3-e]indazol-6-amine] are at most 1 µM and at most 5 µM.
In the case of `OCC(CO)N1CCC(CCn2cc3c(n2)CCc2c-3sc3ncnc(Nc4ccc(OCc5cccc(F)c5)c(Cl)c4)c23)CC1` [Example 249, 2-(4-{2-[6-({3-chloro-4-[(3-fluorobenzyl)oxy]phenyl}amino)-4,5-dihydro-2H-pyrimido[5′,4′:4,5]thieno[2,3-e]indazol-2-yl]ethyl}piperidin-1-yl)propane-1,3-diol], the IC50 was at most 1 µM in assay [1] and at most 5 µM in assay [2].
In the same order, the values of `CCC(CC)CN1CCC(CCn2cc3c(n2)CCc2c-3sc3ncnc(Nc4ccc(OCc5cccc(F)c5)c(Cl)c4)c23)CC1` [Example 250, N-{3-chloro-4-[(3-fluorobenzyl)oxy]phenyl}-2-{2-[1-(2-ethylbutyl)piperidin-4-yl]ethyl}-4,5-dihydro-2H-pyrimido[5′,4′:4,5]thieno[2,3-e]indazol-6-amine] are at most 1 µM and at most 5 µM.
For `CC(C)CN1CCC(CCn2cc3c(n2)CCc2c-3sc3ncnc(Nc4ccc(OCc5cccc(F)c5)c(Cl)c4)c23)CC1` [Example 251, N-{3-chloro-4-[(3-fluorobenzyl)oxy]phenyl}-2-[2-(1-isobutylpiperidin-4-yl)ethyl]-4,5-dihydro-2H-pyrimido[5′,4′:4,5]thieno[2,3-e]indazol-6-amine] the same measures were at most 1 µM and at most 5 µM.
As to `CC(C)N1CCC(CCn2cc3c(n2)CCc2c-3sc3ncnc(Nc4ccc(OCc5cccc(F)c5)c(Cl)c4)c23)CC1` [Example 252, N-{3-chloro-4-[(3-fluorobenzyl)oxy]phenyl}-2-[2-(1-isopropylpiperidin-4-yl)ethyl]-4,5-dihydro-2H-pyrimido[5′,4′:4,5]thieno[2,3-e]indazol-6-amine], the IC50 in assay [1] was at most 1 µM; in assay [2], at most 5 µM.
Take `CCCN1CCC(CCn2cc3c(n2)CCc2c-3sc3ncnc(Nc4ccc(OCc5cccc(F)c5)c(Cl)c4)c23)CC1` [Example 253, N-{3-chloro-4-[(3-fluorobenzyl)oxy]phenyl}-2-[2-(1-propylpiperidin-4-yl)ethyl]-4,5-dihydro-2H-pyrimido[5′,4′:4,5]thieno[2,3-e]indazol-6-amine]: the IC50 in assay [1] was at most 1 µM; in assay [2], at most 5 µM.
In the same order, the values of `CCN1CCC(CCn2cc3c(n2)CCc2c-3sc3ncnc(Nc4ccc(OCc5cccc(F)c5)c(Cl)c4)c23)CC1` [Example 254, N-{3-chloro-4-[(3-fluorobenzyl)oxy]phenyl}-2-[2-(1-ethylpiperidin-4-yl)ethyl]-4,5-dihydro-2H-pyrimido[5′,4′:4,5]thieno[2,3-e]indazol-6-amine] are at most 1 µM and at most 5 µM.
In the same order, the values of `CN1CCC(CCn2cc3c(n2)CCc2c-3sc3ncnc(Nc4ccc(OCc5cccc(F)c5)c(Cl)c4)c23)CC1` [Example 255, N-{3-chloro-4-[(3-fluorobenzyl)oxy]phenyl}-2-[2-(1-methylpiperidin-4-yl)ethyl]-4,5-dihydro-2H-pyrimido[5′,4′:4,5]thieno[2,3-e]indazol-6-amine] are at most 1 µM and at most 5 µM.

(Values after US8207172B2 (Bayer Intellectual Property GmbH, priority 2004, dated 2012).)
